# Source: the kinase profiling compilation of Christmann-Franck et al. (2016)
# Key:
# Assay in all cases: KINOMEscan competition binding
# Settings in all cases: compound 10.0 µM
# PDGFRB (human) = PDGFRB (human) (UniProt P09619)
# RPS6KA4 KD2 (human) = RPS6KA4 KD2 (human) (UniProt O75676)
# [1] = tested on: RET (human), P07949 [V804M]
# STK11 (human) = STK11 (human) (UniProt Q15831)
# ACVR2A (human) = ACVR2A (human) (UniProt P27037)
# SIK1 (human) = SIK1 (human) (UniProt P57059)
# NEK9 (human) = NEK9 (human) (UniProt Q8TD19)
# MAP2K3 (human) = MAP2K3 (human) (UniProt P46734)
# MAPK8 (human) = MAPK8 (human) (UniProt P45983)
# [2] = tested on: FLT3 (human), P36888 [D835H]
# CHUK (human) = CHUK (human) (UniProt O15111)
# TEK (human) = TEK (human) (UniProt Q02763)
# STK25 (human) = STK25 (human) (UniProt O00506)
# LTK (human) = LTK (human) (UniProt P29376)
# EPHA4 (human) = EPHA4 (human) (UniProt P54764)
# ITK (human) = ITK (human) (UniProt Q08881)
# [3] = molecular target: JAK1 JH2 pseudokinase (human) (UniProt P23458)
# MAPK15 (human) = MAPK15 (human) (UniProt Q8TD08)
# ULK2 (human) = ULK2 (human) (UniProt Q8IYT8)
# AAK1 (human) = AAK1 (human) (UniProt Q2M2I8)
# [4] = molecular target: JAK2 JH1 catalytic (human) (UniProt O60674)
# TLK1 (human) = TLK1 (human) (UniProt Q9UKI8)
# EPHB4 (human) = EPHB4 (human) (UniProt P54760)
# [5] = molecular target: TYK2 JH2 pseudokinase (human) (UniProt P29597)
# MYLK2 (human) = MYLK2 (human) (UniProt Q9H1R3)
# MAPK14 (human) = MAPK14 (human) (UniProt Q16539)
# MAPK6 (human) = MAPK6 (human) (UniProt Q16659)
# MAP2K1 (human) = MAP2K1 (human) (UniProt Q02750)
# TAOK3 (human) = TAOK3 (human) (UniProt Q9H2K8)
# MAPK7 (human) = MAPK7 (human) (UniProt Q13164)
# KDR (human) = KDR (human) (UniProt P35968)
# RPS6KA2 KD2 (human) = RPS6KA2 KD2 (human) (UniProt Q15349)
# RIOK1 (human) = RIOK1 (human) (UniProt Q9BRS2)
# CSNK1G1 (human) = CSNK1G1 (human) (UniProt Q9HCP0)
# PRKACA (human) = PRKACA (human) (UniProt P17612)
# AURKC (human) = AURKC (human) (UniProt Q9UQB9)
# [6] = tested on: EGFR (human), P00533 [A750P; 747-749 del]
# TTK (human) = TTK (human) (UniProt P33981)
# LYN (human) = LYN (human) (UniProt P07948)
# RPS6KA6 KD1 (human) = RPS6KA6 KD1 (human) (UniProt Q9UK32)
# PKN1 (human) = PKN1 (human) (UniProt Q16512)
# RPS6KA1 KD1 (human) = RPS6KA1 KD1 (human) (UniProt Q15418)
# Sequence of RPS6KA1 KD1 (human) (Q15418 whole entry, looked up): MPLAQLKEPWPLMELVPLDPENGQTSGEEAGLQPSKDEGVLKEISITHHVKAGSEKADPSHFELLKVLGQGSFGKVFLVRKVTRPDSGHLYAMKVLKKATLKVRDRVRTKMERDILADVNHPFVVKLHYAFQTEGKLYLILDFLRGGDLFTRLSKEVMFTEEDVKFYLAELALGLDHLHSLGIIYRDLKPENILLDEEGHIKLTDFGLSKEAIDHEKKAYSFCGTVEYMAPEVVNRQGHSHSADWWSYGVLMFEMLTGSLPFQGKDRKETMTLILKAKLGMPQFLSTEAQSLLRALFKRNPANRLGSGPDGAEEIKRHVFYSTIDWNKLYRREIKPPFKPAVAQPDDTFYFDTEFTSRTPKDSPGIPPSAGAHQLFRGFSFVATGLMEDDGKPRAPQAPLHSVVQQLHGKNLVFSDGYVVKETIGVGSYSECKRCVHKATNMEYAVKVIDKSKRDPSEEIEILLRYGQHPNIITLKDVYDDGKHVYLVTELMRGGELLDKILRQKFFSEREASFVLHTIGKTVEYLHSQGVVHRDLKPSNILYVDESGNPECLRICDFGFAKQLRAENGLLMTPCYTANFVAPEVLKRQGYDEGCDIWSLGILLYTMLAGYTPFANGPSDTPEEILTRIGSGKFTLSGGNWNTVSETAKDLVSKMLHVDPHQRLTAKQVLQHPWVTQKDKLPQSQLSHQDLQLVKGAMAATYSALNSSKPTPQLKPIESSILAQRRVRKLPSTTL
# Sequence of ACVR2A (human) (P27037 whole entry, looked up): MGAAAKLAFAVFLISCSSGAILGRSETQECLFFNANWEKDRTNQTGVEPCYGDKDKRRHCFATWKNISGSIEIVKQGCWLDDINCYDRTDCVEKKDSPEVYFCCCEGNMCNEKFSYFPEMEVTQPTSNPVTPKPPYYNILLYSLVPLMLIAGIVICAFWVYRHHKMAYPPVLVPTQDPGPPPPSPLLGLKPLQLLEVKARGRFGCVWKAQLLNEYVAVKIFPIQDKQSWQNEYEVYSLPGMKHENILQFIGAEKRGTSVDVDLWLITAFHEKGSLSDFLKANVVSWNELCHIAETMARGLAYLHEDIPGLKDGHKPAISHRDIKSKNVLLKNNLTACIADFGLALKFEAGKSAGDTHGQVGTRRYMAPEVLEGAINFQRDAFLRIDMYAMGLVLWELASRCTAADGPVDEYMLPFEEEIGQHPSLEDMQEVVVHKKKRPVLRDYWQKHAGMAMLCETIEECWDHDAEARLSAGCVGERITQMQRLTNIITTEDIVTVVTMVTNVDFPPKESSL
# Sequence of RPS6KA6 KD1 (human) (Q9UK32 whole entry, looked up): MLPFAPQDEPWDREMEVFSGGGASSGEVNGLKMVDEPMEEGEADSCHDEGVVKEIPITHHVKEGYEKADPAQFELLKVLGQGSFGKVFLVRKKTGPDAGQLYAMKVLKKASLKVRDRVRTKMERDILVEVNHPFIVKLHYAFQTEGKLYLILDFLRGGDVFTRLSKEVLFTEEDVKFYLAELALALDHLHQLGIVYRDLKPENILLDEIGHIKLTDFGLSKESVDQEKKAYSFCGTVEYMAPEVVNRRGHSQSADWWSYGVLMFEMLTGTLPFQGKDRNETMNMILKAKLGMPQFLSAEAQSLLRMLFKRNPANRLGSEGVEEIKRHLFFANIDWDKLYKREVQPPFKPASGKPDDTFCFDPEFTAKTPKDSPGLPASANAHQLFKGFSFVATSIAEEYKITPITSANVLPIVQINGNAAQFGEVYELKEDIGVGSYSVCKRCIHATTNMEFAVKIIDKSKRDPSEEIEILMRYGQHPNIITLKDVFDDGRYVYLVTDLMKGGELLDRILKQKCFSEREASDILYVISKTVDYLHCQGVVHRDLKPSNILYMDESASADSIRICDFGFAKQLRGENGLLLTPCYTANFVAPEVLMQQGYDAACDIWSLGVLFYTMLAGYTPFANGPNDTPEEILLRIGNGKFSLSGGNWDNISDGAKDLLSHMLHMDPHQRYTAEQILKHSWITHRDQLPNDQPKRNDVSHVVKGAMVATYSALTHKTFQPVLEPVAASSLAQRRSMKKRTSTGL
# Sequence of LYN (human) (P07948 whole entry, looked up): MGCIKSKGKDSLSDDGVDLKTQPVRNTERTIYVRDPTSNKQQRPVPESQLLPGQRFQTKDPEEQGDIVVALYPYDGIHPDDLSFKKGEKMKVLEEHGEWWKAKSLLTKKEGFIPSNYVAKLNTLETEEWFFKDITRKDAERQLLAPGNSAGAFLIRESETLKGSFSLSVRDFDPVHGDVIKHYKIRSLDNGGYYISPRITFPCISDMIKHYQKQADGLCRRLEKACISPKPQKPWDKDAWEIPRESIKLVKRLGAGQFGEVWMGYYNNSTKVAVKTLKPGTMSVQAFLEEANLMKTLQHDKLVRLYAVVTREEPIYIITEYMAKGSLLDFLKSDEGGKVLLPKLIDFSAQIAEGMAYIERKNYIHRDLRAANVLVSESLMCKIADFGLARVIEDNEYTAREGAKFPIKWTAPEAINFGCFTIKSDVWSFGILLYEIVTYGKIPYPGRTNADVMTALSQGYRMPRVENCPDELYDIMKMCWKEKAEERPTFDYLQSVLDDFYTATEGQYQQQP
# Sequence of RET (human), P07949 [V804M] (P07949 whole entry V804M, looked up): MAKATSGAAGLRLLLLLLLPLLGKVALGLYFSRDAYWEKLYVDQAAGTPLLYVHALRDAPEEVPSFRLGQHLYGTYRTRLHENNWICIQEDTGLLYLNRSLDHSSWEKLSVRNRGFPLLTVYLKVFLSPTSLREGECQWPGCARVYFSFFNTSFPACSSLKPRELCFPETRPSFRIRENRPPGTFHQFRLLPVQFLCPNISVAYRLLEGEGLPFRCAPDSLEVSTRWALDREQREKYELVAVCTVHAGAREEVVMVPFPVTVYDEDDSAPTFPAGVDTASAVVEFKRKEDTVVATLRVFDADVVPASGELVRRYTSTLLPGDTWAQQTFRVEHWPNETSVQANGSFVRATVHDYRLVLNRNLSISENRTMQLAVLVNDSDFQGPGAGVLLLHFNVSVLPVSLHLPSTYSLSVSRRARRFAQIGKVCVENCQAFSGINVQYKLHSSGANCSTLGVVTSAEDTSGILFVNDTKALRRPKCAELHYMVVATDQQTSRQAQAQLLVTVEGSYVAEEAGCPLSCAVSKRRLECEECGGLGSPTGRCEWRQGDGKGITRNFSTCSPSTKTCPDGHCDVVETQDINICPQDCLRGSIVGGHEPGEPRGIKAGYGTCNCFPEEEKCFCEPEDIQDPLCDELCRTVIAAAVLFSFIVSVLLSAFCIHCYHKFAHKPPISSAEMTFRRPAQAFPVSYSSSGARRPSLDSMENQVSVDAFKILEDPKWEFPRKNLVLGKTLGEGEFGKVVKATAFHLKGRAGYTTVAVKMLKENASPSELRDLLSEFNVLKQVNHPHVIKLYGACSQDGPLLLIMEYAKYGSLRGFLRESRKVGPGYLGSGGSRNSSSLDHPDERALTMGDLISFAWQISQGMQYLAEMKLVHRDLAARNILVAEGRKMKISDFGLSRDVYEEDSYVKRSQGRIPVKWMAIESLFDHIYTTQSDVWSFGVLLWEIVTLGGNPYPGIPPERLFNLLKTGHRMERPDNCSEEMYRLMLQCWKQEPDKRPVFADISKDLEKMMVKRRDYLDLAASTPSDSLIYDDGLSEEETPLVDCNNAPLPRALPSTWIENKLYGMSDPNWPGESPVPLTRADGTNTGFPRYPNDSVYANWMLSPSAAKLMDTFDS
# Sequence of MAP2K3 (human) (P46734 whole entry, looked up): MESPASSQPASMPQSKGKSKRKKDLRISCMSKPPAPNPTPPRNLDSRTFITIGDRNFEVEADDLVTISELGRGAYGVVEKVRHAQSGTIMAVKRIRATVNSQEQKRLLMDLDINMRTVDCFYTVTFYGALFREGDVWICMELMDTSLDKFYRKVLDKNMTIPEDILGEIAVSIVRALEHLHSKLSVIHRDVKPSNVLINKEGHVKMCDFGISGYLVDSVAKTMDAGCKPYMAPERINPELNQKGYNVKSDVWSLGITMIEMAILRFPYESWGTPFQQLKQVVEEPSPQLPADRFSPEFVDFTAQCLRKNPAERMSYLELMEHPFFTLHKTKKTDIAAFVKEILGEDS
# Sequence of AAK1 (human) (Q2M2I8 whole entry, looked up): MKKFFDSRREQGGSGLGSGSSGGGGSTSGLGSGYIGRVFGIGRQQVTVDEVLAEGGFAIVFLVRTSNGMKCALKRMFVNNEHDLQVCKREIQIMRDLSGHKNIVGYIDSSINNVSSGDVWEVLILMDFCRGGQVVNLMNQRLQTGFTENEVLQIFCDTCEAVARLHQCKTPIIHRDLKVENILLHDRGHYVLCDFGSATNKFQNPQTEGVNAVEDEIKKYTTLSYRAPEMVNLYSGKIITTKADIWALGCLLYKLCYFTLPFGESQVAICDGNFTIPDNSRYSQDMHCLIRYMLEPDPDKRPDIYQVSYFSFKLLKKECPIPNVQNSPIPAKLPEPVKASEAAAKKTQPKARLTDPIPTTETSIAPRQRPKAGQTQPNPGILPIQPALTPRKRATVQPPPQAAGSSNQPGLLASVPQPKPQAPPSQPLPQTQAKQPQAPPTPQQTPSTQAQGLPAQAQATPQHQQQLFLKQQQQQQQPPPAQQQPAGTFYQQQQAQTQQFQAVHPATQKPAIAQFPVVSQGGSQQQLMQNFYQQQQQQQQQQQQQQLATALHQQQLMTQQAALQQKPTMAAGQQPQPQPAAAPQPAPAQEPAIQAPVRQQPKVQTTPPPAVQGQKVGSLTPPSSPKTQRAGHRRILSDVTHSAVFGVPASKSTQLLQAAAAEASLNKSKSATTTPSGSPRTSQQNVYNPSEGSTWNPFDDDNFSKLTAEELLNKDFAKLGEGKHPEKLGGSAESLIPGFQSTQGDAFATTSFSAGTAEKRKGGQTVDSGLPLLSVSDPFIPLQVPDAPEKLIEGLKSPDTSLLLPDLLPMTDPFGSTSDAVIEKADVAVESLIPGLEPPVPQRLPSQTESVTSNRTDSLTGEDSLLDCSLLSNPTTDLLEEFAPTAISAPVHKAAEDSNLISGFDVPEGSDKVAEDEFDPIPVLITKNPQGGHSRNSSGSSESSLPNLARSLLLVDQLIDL
structure (smiles),measurement,setting,value
COc1cc(N2CCN(C)CC2)ccc1Nc1ncc2c(n1)Nc1ccccc1NC2=O,"kinase still bound, per cent of control",PDGFRB (human),13%
same,"kinase still bound, per cent of control",RPS6KA4 KD2 (human),31%
same,"kinase still bound, per cent of control",[1],100%
same,"kinase still bound, per cent of control",STK11 (human),100%
same,"kinase still bound, per cent of control",ACVR2A (human),34%
same,"kinase still bound, per cent of control",SIK1 (human),27%
same,"kinase still bound, per cent of control",NEK9 (human),87%
same,"kinase still bound, per cent of control",MAP2K3 (human),88%
same,"kinase still bound, per cent of control",MAPK8 (human),73%
same,"kinase still bound, per cent of control",[2],20%
same,"kinase still bound, per cent of control",CHUK (human),67%
same,"kinase still bound, per cent of control",TEK (human),100%
same,"kinase still bound, per cent of control",STK25 (human),84%
same,"kinase still bound, per cent of control",LTK (human),72%
same,"kinase still bound, per cent of control",EPHA4 (human),100%
same,"kinase still bound, per cent of control",ITK (human),100%
same,"kinase still bound, per cent of control",[3],32%
same,"kinase still bound, per cent of control",MAPK15 (human),69%
same,"kinase still bound, per cent of control",ULK2 (human),75%
same,"kinase still bound, per cent of control",AAK1 (human),75%
same,"kinase still bound, per cent of control",[4],85%
same,"kinase still bound, per cent of control",TLK1 (human),70%
same,"kinase still bound, per cent of control",EPHB4 (human),100%
same,"kinase still bound, per cent of control",[5],1%
same,"kinase still bound, per cent of control",MYLK2 (human),69%
same,"kinase still bound, per cent of control",MAPK14 (human),100%
same,"kinase still bound, per cent of control",MAPK6 (human),100%
same,"kinase still bound, per cent of control",MAP2K1 (human),71%
same,"kinase still bound, per cent of control",TAOK3 (human),2.1%
same,"kinase still bound, per cent of control",MAPK7 (human),100%
same,"kinase still bound, per cent of control",KDR (human),74%
same,"kinase still bound, per cent of control",RPS6KA2 KD2 (human),80%
same,"kinase still bound, per cent of control",RIOK1 (human),67%
same,"kinase still bound, per cent of control",CSNK1G1 (human),100%
same,"kinase still bound, per cent of control",PRKACA (human),100%
same,"kinase still bound, per cent of control",AURKC (human),55%
same,"kinase still bound, per cent of control",[6],33%
same,"kinase still bound, per cent of control",TTK (human),86%
same,"kinase still bound, per cent of control",LYN (human),77%
same,"kinase still bound, per cent of control",RPS6KA6 KD1 (human),93%
same,"kinase still bound, per cent of control",PKN1 (human),69%
same,"kinase still bound, per cent of control",RPS6KA1 KD1 (human),96%
CN1CCN(c2ccc(C(=O)Nc3ncc4c(n3)N(C)c3ccccc3C(=O)N4C)cc2)CC1,"kinase still bound, per cent of control",PDGFRB (human),80%
same,"kinase still bound, per cent of control",RPS6KA4 KD2 (human),98%
same,"kinase still bound, per cent of control",[1],100%
same,"kinase still bound, per cent of control",STK11 (human),100%
same,"kinase still bound, per cent of control",ACVR2A (human),100%
same,"kinase still bound, per cent of control",SIK1 (human),100%
same,"kinase still bound, per cent of control",NEK9 (human),100%
same,"kinase still bound, per cent of control",MAP2K3 (human),84%
same,"kinase still bound, per cent of control",MAPK8 (human),100%
same,"kinase still bound, per cent of control",[2],100%
same,"kinase still bound, per cent of control",CHUK (human),83%
same,"kinase still bound, per cent of control",TEK (human),100%
same,"kinase still bound, per cent of control",STK25 (human),100%
same,"kinase still bound, per cent of control",LTK (human),86%
same,"kinase still bound, per cent of control",EPHA4 (human),97%
same,"kinase still bound, per cent of control",ITK (human),100%
same,"kinase still bound, per cent of control",[3],100%
same,"kinase still bound, per cent of control",MAPK15 (human),100%
same,"kinase still bound, per cent of control",ULK2 (human),89%
same,"kinase still bound, per cent of control",AAK1 (human),100%
same,"kinase still bound, per cent of control",[4],6.2%
same,"kinase still bound, per cent of control",TLK1 (human),86%
same,"kinase still bound, per cent of control",EPHB4 (human),97%
same,"kinase still bound, per cent of control",[5],61%
same,"kinase still bound, per cent of control",MYLK2 (human),100%
same,"kinase still bound, per cent of control",MAPK14 (human),100%
same,"kinase still bound, per cent of control",MAPK6 (human),70%
same,"kinase still bound, per cent of control",MAP2K1 (human),100%
same,"kinase still bound, per cent of control",TAOK3 (human),92%
same,"kinase still bound, per cent of control",MAPK7 (human),65%
same,"kinase still bound, per cent of control",KDR (human),86%
same,"kinase still bound, per cent of control",RPS6KA2 KD2 (human),64%
same,"kinase still bound, per cent of control",RIOK1 (human),80%
same,"kinase still bound, per cent of control",CSNK1G1 (human),100%
same,"kinase still bound, per cent of control",PRKACA (human),100%
same,"kinase still bound, per cent of control",AURKC (human),99%
same,"kinase still bound, per cent of control",[6],100%
same,"kinase still bound, per cent of control",TTK (human),95%
same,"kinase still bound, per cent of control",LYN (human),94%
same,"kinase still bound, per cent of control",RPS6KA6 KD1 (human),100%
same,"kinase still bound, per cent of control",PKN1 (human),100%
same,"kinase still bound, per cent of control",RPS6KA1 KD1 (human),93%
